In ChEMBL document CHEMBL1122120, “Brain levels and metabolism of the dopaminergic agonist 2-amino-6,7-dihydroxytetrahydronaphthalene after administration of various prodrugs” (J Med Chem, 1982):

assay: Tested for the stability in water after 24h, activity expressed as percentage hydrolysis; format: physicochemical; conditions: read-out: Hydrolysis

| Structure (SMILES) | degraded at 24 h [%] |
| --- | --- |
| CC(C)C(=O)Oc1cc2c(cc1OC(=O)C(C)C)CC(N)CC2 (stereo not drawn) | 0.23 |
| CC(=O)Oc1cc2c(cc1OC(C)=O)CC(N)CC2 (stereo not drawn) | 3.74 |
| CC(C)(C)C(=O)Oc1cc2c(cc1OC(=O)C(C)(C)C)CC(N)CC2 (stereo not drawn) | 0.02 |
| NC1CCc2cc(OC(=O)c3ccccc3)c(OC(=O)c3ccccc3)cc2C1 (stereo not drawn) | 0.06 |

assay: Tested for the stability in water after 6h, activity expressed as percentage hydrolysis; format: physicochemical; conditions: read-out: Hydrolysis

| Structure (SMILES) | degraded at 6 h [%] |
| --- | --- |
| CC(C)C(=O)Oc1cc2c(cc1OC(=O)C(C)C)CC(N)CC2 (stereo not drawn) | 0.06 |
| CC(=O)Oc1cc2c(cc1OC(C)=O)CC(N)CC2 (stereo not drawn) | 1.64 |
| CC(C)(C)C(=O)Oc1cc2c(cc1OC(=O)C(C)(C)C)CC(N)CC2 (stereo not drawn) | 0.01 |
| NC1CCc2cc(OC(=O)c3ccccc3)c(OC(=O)c3ccccc3)cc2C1 (stereo not drawn) | 0.03 |
